System: MV-4-11 cells
Experiment: Gene expression microarray analysis (Affymetrix PrimeView) and GSEA
Assay type: cell-based, human
Design: RFU PODN (11730768_x_at) / Fold change /veh PODN (11730768_x_at) / RFU LINC00158 (11744669_a_at) / Fold change /veh LINC00158 (11744669_a_at) / RFU DUSP10 (11751237_a_at) / Fold change /veh DUSP10 (11751237_a_at) / RFU ID3 (11757404_x_at) / Fold change /veh ID3 (11757404_x_at) / RFU PLEKHG5 (11737974_s_at) / Fold change /veh PLEKHG5 (11737974_s_at) / RFU LRRC4B (11730491_at) / Fold change /veh LRRC4B (11730491_at) / RFU GIMAP4 (11747438_a_at) / Fold change /veh GIMAP4 (11747438_a_at) / RFU KRT8 (11758183_x_at) / Fold change /veh KRT8 (11758183_x_at) / RFU CNN1 (11734310_a_at) / Fold change /veh CNN1 (11734310_a_at) / RFU VPS37D (11726825_at) / Fold change /veh VPS37D (11726825_at) / RFU C10orf10 (11716522_x_at) / Fold change /veh C10orf10 (11716522_x_at) / RFU KIR2DL2 /// KIR2DL4 /// KIR2DL5A /// KIR2DL5B /// KIR2DS1 /// KIR2DS2 /// KIR2DS3 /// KIR2DS4 /// KIR3DL3 /// KIR3DL3 /// KIR3DS1 (11738374_at) / Fold change /veh KIR2DL2 /// KIR2DL4 /// KIR2DL5A /// KIR2DL5B /// KIR2DS1 /// KIR2DS2 /// KIR2DS3 /// KIR2DS4 /// KIR3DL3 /// KIR3DL3 /// KIR3DS1 (11738374_at) / RFU C1QL1 (11718748_at) / Fold change /veh C1QL1 (11718748_at) / RFU TMPRSS4 (11747572_a_at) / Fold change /veh TMPRSS4 (11747572_a_at) / RFU HAMP (11756126_x_at) / Fold change /veh HAMP (11756126_x_at) / RFU RNFT2 (11725882_a_at) / Fold change /veh RNFT2 (11725882_a_at) / RFU NR4A2 (11747474_a_at) / Fold change /veh NR4A2 (11747474_a_at) / RFU ABCC12 (11746883_a_at) / Fold change /veh ABCC12 (11746883_a_at) / RFU TMEM136 (11760407_x_at) / Fold change /veh TMEM136 (11760407_x_at) / RFU CLDN22 /// WWC2 (11732394_at) / Fold change /veh CLDN22 /// WWC2 (11732394_at) / RFU HLA-DPB1 (11760878_x_at) / Fold change /veh HLA-DPB1 (11760878_x_at) / RFU SPINT1 (11716480_a_at) / Fold change /veh SPINT1 (11716480_a_at) / RFU GAP43 (11754022_s_at) / Fold change /veh GAP43 (11754022_s_at) / RFU A4GNT (11735810_at) / Fold change /veh A4GNT (11735810_at) / RFU PRB3 (11715151_x_at) / Fold change /veh PRB3 (11715151_x_at) / RFU TUBB4B (11761932_at) / Fold change /veh TUBB4B (11761932_at) / RFU CAPN14 (11732068_a_at) / Fold change /veh CAPN14 (11732068_a_at) / RFU TMCC2 (11721928_a_at) / Fold change /veh TMCC2 (11721928_a_at) / RFU IRGQ (11745062_a_at) / Fold change /veh IRGQ (11745062_a_at) / RFU FAM174B (11720279_a_at) / Fold change /veh FAM174B (11720279_a_at) / RFU TMPRSS4 (11748680_a_at) / Fold change /veh TMPRSS4 (11748680_a_at) / RFU FAM212B (11763350_a_at) / Fold change /veh FAM212B (11763350_a_at) / RFU PLEKHG5 (11743358_a_at) / Fold change /veh PLEKHG5 (11743358_a_at) / RFU ZSCAN30 (11745921_a_at) / Fold change /veh ZSCAN30 (11745921_a_at) / RFU CMKLR1 (11741424_a_at) / Fold change /veh CMKLR1 (11741424_a_at) / RFU LOC101060620 /// MAPK8IP1 (11723275_at) / Fold change /veh LOC101060620 /// MAPK8IP1 (11723275_at) / RFU SPTSSB (11747773_x_at) / Fold change /veh SPTSSB (11747773_x_at) / RFU PRSS12 (11739890_at) / Fold change /veh PRSS12 (11739890_at) / RFU BIN1 (11741810_x_at) / Fold change /veh BIN1 (11741810_x_at) / RFU WNT11 (11732464_a_at) / Fold change /veh WNT11 (11732464_a_at) / RFU C10orf10 (11716521_a_at) / Fold change /veh C10orf10 (11716521_a_at) / RFU C5orf56 (11738089_at) / Fold change /veh C5orf56 (11738089_at) / RFU CYB561 (11721691_x_at) / Fold change /veh CYB561 (11721691_x_at) / RFU ANKRD19P (11752326_a_at) / Fold change /veh ANKRD19P (11752326_a_at) / RFU OR2T12 /// OR2T33 /// OR2T8 (11738714_s_at) / Fold change /veh OR2T12 /// OR2T33 /// OR2T8 (11738714_s_at) / RFU VCAN (11748164_a_at) / Fold change /veh VCAN (11748164_a_at) / RFU JSRP1 (11732532_at) / Fold change /veh JSRP1 (11732532_at) / RFU KRTAP10-11 (11738290_x_at) / Fold change /veh KRTAP10-11 (11738290_x_at) / RFU MYO3A (11730013_a_at) / Fold change /veh MYO3A (11730013_a_at) / RFU EBF3 (11725865_a_at) / Fold change /veh EBF3 (11725865_a_at) / RFU CAMK2N1 (11719241_x_at) / Fold change /veh CAMK2N1 (11719241_x_at) / RFU C5orf56 (11738088_a_at) / Fold change /veh C5orf56 (11738088_a_at) / RFU OLFML3 (11715873_a_at) / Fold change /veh OLFML3 (11715873_a_at) / RFU LOC100653217 /// NTM (11731650_a_at) / Fold change /veh LOC100653217 /// NTM (11731650_a_at) / RFU MAPK11 (11762145_a_at) / Fold change /veh MAPK11 (11762145_a_at) / RFU FIZ1 (11724087_x_at) / Fold change /veh FIZ1 (11724087_x_at) / RFU OASL (11726364_x_at) / Fold change /veh OASL (11726364_x_at) / RFU SOX15 (11748057_x_at) / Fold change /veh SOX15 (11748057_x_at) / RFU CD79A (11719716_a_at) / Fold change /veh CD79A (11719716_a_at) / RFU HIST1H1D (11736915_at) / Fold change /veh HIST1H1D (11736915_at) / RFU CASKIN2 (11723855_a_at) / Fold change /veh CASKIN2 (11723855_a_at) / RFU LOC730098 (11760151_x_at) / Fold change /veh LOC730098 (11760151_x_at) / RFU OR4N2 (11742367_at) / Fold change /veh OR4N2 (11742367_at) / RFU PRRT2 (11749266_a_at) / Fold change /veh PRRT2 (11749266_a_at) / RFU SNX32 (11753110_a_at) / Fold change /veh SNX32 (11753110_a_at) / RFU CDHR5 (11726645_a_at) / Fold change /veh CDHR5 (11726645_a_at) / RFU RCAN1 (11760418_a_at) / Fold change /veh RCAN1 (11760418_a_at) / RFU FAM167A (11723789_a_at) / Fold change /veh FAM167A (11723789_a_at) / RFU FAM26E (11764081_at) / Fold change /veh FAM26E (11764081_at) / RFU ISYNA1 (11749810_s_at) / Fold change /veh ISYNA1 (11749810_s_at) / RFU ACY1 (11761880_at) / Fold change /veh ACY1 (11761880_at) / RFU 11764098_at / Fold change /veh 11764098_at / RFU SAMD14 (11745864_x_at) / Fold change /veh SAMD14 (11745864_x_at) / RFU NPB (11741838_a_at) / Fold change /veh NPB (11741838_a_at) / RFU TMPRSS6 (11731388_a_at) / Fold change /veh TMPRSS6 (11731388_a_at) / RFU KRTAP10-2 (11738614_at) / Fold change /veh KRTAP10-2 (11738614_at) / RFU ARHGAP8 /// PRR5-ARHGAP8 (11727945_x_at) / Fold change /veh ARHGAP8 /// PRR5-ARHGAP8 (11727945_x_at) / RFU KRTAP5-7 /// NADSYN1 (11734609_at) / Fold change /veh KRTAP5-7 /// NADSYN1 (11734609_at) / RFU RASL12 (11751679_a_at) / Fold change /veh RASL12 (11751679_a_at) / RFU CDKN2B (11736163_a_at) / Fold change /veh CDKN2B (11736163_a_at) / RFU PRF1 (11729649_at) / Fold change /veh PRF1 (11729649_at) / RFU, ZNF638 /// ZNF638-IT1 / Fold change vs veh, ZNF638 /// ZNF638-IT1 / RFU, PANK3 / Fold change vs veh, PANK3 / RFU, SH3YL1 / Fold change vs veh, SH3YL1 / RFU, ZEB2 / Fold change vs veh, ZEB2 / RFU, NRIP1 / Fold change vs veh, NRIP1 / RFU, PTTG1IP / Fold change vs veh, PTTG1IP / RFU, CAPN2 / Fold change vs veh, CAPN2 / RFU, MED14 / Fold change vs veh, MED14 / RFU, SNORA58 / Fold change vs veh, SNORA58 / RFU, C1orf63 / Fold change vs veh, C1orf63 / RFU, LRRFIP1 / Fold change vs veh, LRRFIP1 / RFU, NDUFAF7 / Fold change vs veh, NDUFAF7 / RFU, SLC12A2 / Fold change vs veh, SLC12A2 / RFU, IBTK / Fold change vs veh, IBTK / RFU, ESF1 / Fold change vs veh, ESF1 / Fold change vs veh, TMEM50B / RFU, TAOK1 / Fold change vs veh, TAOK1 / RFU, ACBD3 / Fold change vs veh, ACBD3 / RFU, TMA16 / Fold change vs veh, TMA16 / RFU, RWDD3 / Fold change vs veh, RWDD3 / RFU, BCAT1 / Fold change vs veh, BCAT1 / RFU, EDEM3 / Fold change vs veh, EDEM3 / RFU, TMEM33 / Fold change vs veh, TMEM33 / RFU, WDR75 / Fold change vs veh, WDR75 / RFU, AHCTF1 / Fold change vs veh, AHCTF1 / RFU, TFRC / Fold change vs veh, TFRC / RFU, ZDHHC17 / Fold change vs veh, ZDHHC17 / RFU, NOM1 / Fold change vs veh, NOM1 / RFU, ARL8B / Fold change vs veh, ARL8B / RFU, ZBTB11 / Fold change vs veh, ZBTB11 / RFU, TAMM41 / Fold change vs veh, TAMM41 / RFU, KIAA1704 /// LOC100996395 / Fold change vs veh, KIAA1704 /// LOC100996395 / RFU, ING1 / Fold change vs veh, ING1 / RFU, TRMT61B / Fold change vs veh, TRMT61B / RFU, FUBP3 / Fold change vs veh, FUBP3 / RFU, TP53 / Fold change vs veh, TP53 / RFU, TNKS2 / Fold change vs veh, TNKS2 / RFU, ZFP14 / Fold change vs veh, ZFP14 / RFU, ACTR2 / Fold change vs veh, ACTR2 / RFU, PPP3R1 / Fold change vs veh, PPP3R1 / RFU, PIK3R1 / Fold change vs veh, PIK3R1 / RFU, HNRNPA1 / Fold change vs veh, HNRNPA1 / RFU, RNF170 / Fold change vs veh, RNF170 / RFU, ZNF28 / Fold change vs veh, ZNF28 / RFU, RNGTT / Fold change vs veh, RNGTT / RFU, OGT / Fold change vs veh, OGT / RFU, BRD1 / Fold change vs veh, BRD1 / RFU, MARS / Fold change vs veh, MARS / RFU, ZNF655 / Fold change vs veh, ZNF655 / RFU, FAHD1 / Fold change vs veh, FAHD1 / RFU, BDP1 / Fold change vs veh, BDP1 / RFU, LRRCC1 / Fold change vs veh, LRRCC1 / RFU, ARID1A / Fold change vs veh, ARID1A / RFU, ZNF146 / Fold change vs veh, ZNF146 / RFU, ZNF330 / Fold change vs veh, ZNF330 / RFU, GPN3 / Fold change vs veh, GPN3 / RFU, C9orf123 / Fold change vs veh, C9orf123 / RFU, N4BP2L2 / Fold change vs veh, N4BP2L2 / RFU, ARFIP1 / Fold change vs veh, ARFIP1 / RFU, FAM179B / Fold change vs veh, FAM179B / RFU, BCL10 / Fold change vs veh, BCL10 / RFU, UHRF1BP1L / Fold change vs veh, UHRF1BP1L / RFU, BET1 / Fold change vs veh, BET1 / RFU, CNOT2 / Fold change vs veh, CNOT2 / RFU, ZNF268 / Fold change vs veh, ZNF268 / Fold change vs veh, ZNF507 / RFU, DGCR2 / Fold change vs veh, DGCR2 / RFU, WDSUB1 / Fold change vs veh, WDSUB1 / Fold change vs veh, HSP90B1 /// MIR3652 / RFU, ADSS / Fold change vs veh, ADSS / RFU, GK / Fold change vs veh, GK / RFU, ZNF148 / Fold change vs veh, ZNF148 / RFU, TAF9 / Fold change vs veh, TAF9 / RFU, SLC1A5 / Fold change vs veh, SLC1A5 / RFU, SLMO2 / Fold change vs veh, SLMO2 / RFU, ABCC4 / Fold change vs veh, ABCC4 / RFU, LOC101060439 /// RAP1B / Fold change vs veh, LOC101060439 /// RAP1B / RFU, RFX7 / Fold change vs veh, RFX7 / RFU, GTPBP10 / Fold change vs veh, GTPBP10 / RFU, CNEP1R1 / Fold change vs veh, CNEP1R1 / RFU, BIVM-ERCC5 /// ERCC5 / Fold change vs veh, BIVM-ERCC5 /// ERCC5 / RFU, ILF3 / Fold change vs veh, ILF3 / RFU 11762660_at / Fold change /veh 11762660_at / RFU VCAN (11757783_s_at) / Fold change /veh VCAN (11757783_s_at) / RFU DDX43 (11728927_at) / Fold change /veh DDX43 (11728927_at) / RFU KRT8 (11758188_x_at) / Fold change /veh KRT8 (11758188_x_at) / RFU NKD1 (11759106_at) / Fold change /veh NKD1 (11759106_at) / RFU SRD5A1 (11742802_a_at) / Fold change /veh SRD5A1 (11742802_a_at) / RFU TPSAB1 /// TPSB2 (11721975_s_at) / Fold change /veh TPSAB1 /// TPSB2 (11721975_s_at) / RFU GSTM3 (11746129_a_at) / Fold change /veh GSTM3 (11746129_a_at) / RFU IL23R (11737362_x_at) / Fold change /veh IL23R (11737362_x_at) / RFU TMEM51 (11727254_a_at) / Fold change /veh TMEM51 (11727254_a_at) / RFU PIWIL2 (11732686_x_at) / Fold change /veh PIWIL2 (11732686_x_at) / RFU ORM1 (11744905_x_at) / Fold change /veh ORM1 (11744905_x_at) / RFU CCDC152 (11743942_at) / Fold change /veh CCDC152 (11743942_at) / RFU ECM1 (11717891_a_at) / Fold change /veh ECM1 (11717891_a_at) / RFU IL23R (11748794_a_at) / Fold change /veh IL23R (11748794_a_at) / RFU TNFAIP8L3 (11732012_x_at) / Fold change /veh TNFAIP8L3 (11732012_x_at) / RFU MBOAT4 (11741988_at) / Fold change /veh MBOAT4 (11741988_at) / RFU 11764193_at / Fold change /veh 11764193_at / RFU TMEM53 (11763286_at) / Fold change /veh TMEM53 (11763286_at) / RFU MAGEB2 (11727129_at) / Fold change /veh MAGEB2 (11727129_at) / RFU TMEM200A (11744735_a_at) / Fold change /veh TMEM200A (11744735_a_at) / RFU CCDC152 (11751479_a_at) / Fold change /veh CCDC152 (11751479_a_at) / RFU FAM211A (11726209_a_at) / Fold change /veh FAM211A (11726209_a_at) / RFU RGS16 (11746705_a_at) / Fold change /veh RGS16 (11746705_a_at) / RFU VCAN (11755009_s_at) / Fold change /veh VCAN (11755009_s_at) / RFU RHOB (11743442_s_at) / Fold change /veh RHOB (11743442_s_at) / RFU RGS16 (11720943_a_at) / Fold change /veh RGS16 (11720943_a_at) / RFU RGS16 (11720944_at) / Fold change /veh RGS16 (11720944_at) / RFU, VPS4B / Fold change vs veh, VPS4B / RFU, CREB1 / Fold change vs veh, CREB1 / RFU, DNAJC13 / Fold change vs veh, DNAJC13 / RFU, GNAQ / Fold change vs veh, GNAQ / RFU, CDK5R1 / Fold change vs veh, CDK5R1 / RFU, ZRANB3 / Fold change vs veh, ZRANB3 / RFU, CUL4A / Fold change vs veh, CUL4A / RFU, CCNY / Fold change vs veh, CCNY / RFU, UFL1 / Fold change vs veh, UFL1 / RFU, COG3 / Fold change vs veh, COG3 / RFU, DIAPH2 / Fold change vs veh, DIAPH2 / RFU, SKA2 / Fold change vs veh, SKA2 / RFU, AFF3 / Fold change vs veh, AFF3 / RFU, LMF1 / Fold change vs veh, LMF1 / RFU, IPO11 / Fold change vs veh, IPO11 / RFU, DFFB / Fold change vs veh, DFFB / RFU, FOXP1 / Fold change vs veh, FOXP1 / RFU, CARD8 / Fold change vs veh, CARD8 / RFU, STRN3 / Fold change vs veh, STRN3 / RFU, ADK / Fold change vs veh, ADK / RFU, RASSF2 / Fold change vs veh, RASSF2 / RFU, WIPF1 / Fold change vs veh, WIPF1 / RFU, LARP1B / Fold change vs veh, LARP1B / RFU, RASA1 / Fold change vs veh, RASA1 / RFU, RB1 / Fold change vs veh, RB1 / RFU, PPFIA1 / Fold change vs veh, PPFIA1 / RFU, MAT2A / Fold change vs veh, MAT2A / RFU, CCT5 / Fold change vs veh, CCT5 / RFU, WDR92 / Fold change vs veh, WDR92 / RFU, CUX1 / Fold change vs veh, CUX1 / RFU, TTC7A / Fold change vs veh, TTC7A / RFU, TMEM135 / Fold change vs veh, TMEM135 / RFU, DEPTOR / Fold change vs veh, DEPTOR / RFU, CPM / Fold change vs veh, CPM / RFU, DNAJB6 / Fold change vs veh, DNAJB6 / RFU, CACNA2D3 / Fold change vs veh, CACNA2D3 / RFU, DTX4 / Fold change vs veh, DTX4 / RFU, TFCP2 / Fold change vs veh, TFCP2 / RFU, GMCL1 /// GMCL1P1 / Fold change vs veh, GMCL1 /// GMCL1P1 / RFU, AEBP2 / Fold change vs veh, AEBP2 / RFU, SNHG1 /// SNORD22 /// SNORD25 /// SNORD26 /// SNORD27 /// SNORD28 /// SNORD29 /// SNORD31 / Fold change vs veh, SNHG1 /// SNORD22 /// SNORD25 /// SNORD26 /// SNORD27 /// SNORD28 /// SNORD29 /// SNORD31 / Fold change (Aza/veh), C12orf56 (ProbeSet 11735607_a_at) / Fold change (ACY-1035/veh), C12orf56 (ProbeSet 11735607_a_at) / Fold change (Aza/veh), FGFR1OP (ProbeSet 11751329_s_at) / Fold change (ACY-1035/veh), FGFR1OP (ProbeSet 11751329_s_at) / Fold change (Aza/veh), VPS36 (ProbeSet 11739960_a_at) / Fold change (ACY-1035/veh), VPS36 (ProbeSet 11739960_a_at) / RFU SYPL1 (11715823_x_at) / Fold change /veh SYPL1 (11715823_x_at) / RFU IGFBP7 (11715501_s_at) / Fold change /veh IGFBP7 (11715501_s_at) / RFU REEP3 (11722064_at) / Fold change /veh REEP3 (11722064_at) / RFU IGLL1 (11728026_x_at) / Fold change /veh IGLL1 (11728026_x_at): dose or concentration left out as unconfirmed
Settings: MV-4-11 cells, 48 hours

## Nc1ccc(-c2cccs2)cc1NC(=O)c1ccc2c(c1)cc(C1CC1)n2CCN1CCOCC1 [ACY-1035]
  RFU TMEM53 (11763286_at): 16.39 RFU

— article PMC5218480 (PLoS ONE, 2017)
